In ChEMBL document CHEMBL1201862, “PubChem BioAssay data set” (2004):
Calls of active or inactive are those of the source.

Tests used:
[1] = molecular target: T1, Glutathione-S-transferase (Schistosoma japonicum, UniProt Q26513); assay: biotin-GST/anti-GST TR-FRET signal inhibitors, dose response, artefact control for Vif-APOBEC3G degradation inhibitor project, biochemical (AID 1117362); format: functional
T1 sequence (Q26513 whole entry): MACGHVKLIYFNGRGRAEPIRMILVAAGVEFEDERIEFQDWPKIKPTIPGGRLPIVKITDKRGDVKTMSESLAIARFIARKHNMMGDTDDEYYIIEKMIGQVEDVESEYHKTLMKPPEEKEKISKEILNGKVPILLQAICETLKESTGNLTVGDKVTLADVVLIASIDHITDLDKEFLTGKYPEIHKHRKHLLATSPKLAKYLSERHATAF

[2] = molecular target: Eukaryotic translation initiation factor 4E (Mus musculus, UniProt P63073); assay: eIF4E–eIF4G protein interaction inhibitors, dose response, biochemical, TR-FRET (AID 855); format: functional;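 further: potency for disrupting eIF4E binding to eIF4GI seen as loss of FRET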
[3] = molecular target: Induced myeloid leukemia cell differentiation protein Mcl-1 (Homo sapiens, UniProt Q07820); format: functional
[4] = HepG2 cell cytotoxicity, dose response, cytotoxicity control, plate reader, cherry-pick, antagonist series (AID 743416); format: functional, cell-based
[5] = inhibitors of PGC1a acetylation in cells, dose response, cell-based, cherry-picked samples (AID 720514); format: functional;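 further: potency may reflect raised or lowered acetylation signal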
[6] = A549 cell cytotoxicity, dose response, cytotoxicity control, plate reader, cherry-pick, antagonist series (AID 743412); format: functional, cell-based
[7] = MC4R antagonists, dose response, counter-screen for LGR2 antagonist project, cell-based, plate reader, cherry pick (AID 743444); format: functional;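 further: transfected HEK 293 cells stimulated with alpha-MSH peptide; potency of inhibitors of the alpha-MSH evoked signal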
[8] = HEK293 cell cytotoxicity, dose response, cytotoxicity control, plate reader, cherry-picked samples (AID 743446); format: functional, cell-based
[9] = LGR2 antagonists, dose response, cell-based, HEK293, CRE-luciferase reporter, cherry pick, set 2 (AID 743343); format: functional;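 further: transfected cells were stimulated with diluted bursicon conditioned medium after compound addition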
[10] = molecular target: T2, Microphthalmia-associated transcription factor (Homo sapiens, UniProt O75030); assay: TRPM1 promoter luciferase signal decrease, dose response, MITF inhibitor project, cell-based, SK-MEL-5, cherry-picked, set 3 (AID 493073); format: functional
T2 sequence (O75030 whole entry): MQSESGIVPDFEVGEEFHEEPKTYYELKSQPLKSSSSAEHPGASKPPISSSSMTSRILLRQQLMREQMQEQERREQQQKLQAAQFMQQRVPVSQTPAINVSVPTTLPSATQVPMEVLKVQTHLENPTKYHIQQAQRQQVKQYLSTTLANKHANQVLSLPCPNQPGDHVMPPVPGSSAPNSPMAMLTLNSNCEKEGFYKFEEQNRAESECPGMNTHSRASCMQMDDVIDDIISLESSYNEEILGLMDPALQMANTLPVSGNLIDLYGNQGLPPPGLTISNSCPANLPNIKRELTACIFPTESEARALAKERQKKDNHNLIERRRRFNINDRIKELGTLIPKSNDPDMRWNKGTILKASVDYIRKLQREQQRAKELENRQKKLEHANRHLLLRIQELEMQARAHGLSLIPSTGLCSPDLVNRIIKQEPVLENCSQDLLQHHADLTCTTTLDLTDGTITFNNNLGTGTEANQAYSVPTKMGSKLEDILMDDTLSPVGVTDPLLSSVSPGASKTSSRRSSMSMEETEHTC

[11] = system: A-375; assay: MITF: Counter assay: A375 proliferation Measured in Cell-Based System Using Plate Reader - 2084-03_Inhibitor_Dose_DryPowder_Activity. [Related pubchem assays (depositor defined):AID488944]; format: functional; settings: Homo sapiens
[12] = molecular target: Nonstructural protein 1 (Influenza A virus, UniProt Q194T2); format: functional, Influenza A virus (A/California/07/2009(H1N1))
[13] = cytotoxicity in HEK-293T cells, dose response, cytotoxicity control for TCR NF-kB inhibitor project, luminescence, T-cell screen hits (AID 489026); format: functional, cell-based;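 further: cells exposed to compound about 14 hours before the viability readout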
[14] = system: H9c2; assay: cells; format: functional, cell-based; settings: Rattus norvegicus, H9c2, Myocardium;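 further: confirmatory concentration-response retest of ultra-high-throughput screening hits for modulation of myocardial damage; cell death induced by hydrogen peroxide oxidative stress; compound pretreatment for 60 min then peroxide exposure for 2 h; potency is for protecting the cells against peroxide damage rather than for killing them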
[15] = molecular target: T3, Protein skinhead-1 (Caenorhabditis elegans, UniProt P34707); format: functional
T3 sequence (P34707 whole entry): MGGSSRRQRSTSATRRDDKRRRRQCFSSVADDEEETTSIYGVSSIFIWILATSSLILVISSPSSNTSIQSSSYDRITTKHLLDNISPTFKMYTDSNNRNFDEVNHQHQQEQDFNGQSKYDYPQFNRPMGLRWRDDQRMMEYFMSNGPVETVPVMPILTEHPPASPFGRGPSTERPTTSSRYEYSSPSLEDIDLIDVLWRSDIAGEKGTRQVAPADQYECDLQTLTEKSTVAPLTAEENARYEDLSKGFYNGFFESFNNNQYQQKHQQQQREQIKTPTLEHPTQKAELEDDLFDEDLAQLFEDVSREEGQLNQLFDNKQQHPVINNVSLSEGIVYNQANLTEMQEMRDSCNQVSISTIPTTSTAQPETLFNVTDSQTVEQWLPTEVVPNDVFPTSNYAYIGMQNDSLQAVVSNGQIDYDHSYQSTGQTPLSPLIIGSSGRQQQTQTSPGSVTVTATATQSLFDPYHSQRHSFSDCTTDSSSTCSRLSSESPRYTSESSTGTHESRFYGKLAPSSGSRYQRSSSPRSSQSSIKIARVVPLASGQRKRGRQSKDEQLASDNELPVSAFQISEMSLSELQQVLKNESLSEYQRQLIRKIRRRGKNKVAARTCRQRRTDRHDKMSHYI

Nonstructural protein 1, sequence (Q194T2 whole entry): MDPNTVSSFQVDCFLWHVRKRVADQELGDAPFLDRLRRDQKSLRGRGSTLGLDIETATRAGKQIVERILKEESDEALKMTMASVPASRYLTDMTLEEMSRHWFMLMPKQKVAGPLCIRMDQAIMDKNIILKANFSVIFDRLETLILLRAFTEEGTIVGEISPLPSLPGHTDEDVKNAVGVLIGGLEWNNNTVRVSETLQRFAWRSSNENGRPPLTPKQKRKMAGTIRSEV
Induced myeloid leukemia cell differentiation protein Mcl-1, sequence (Q07820 whole entry): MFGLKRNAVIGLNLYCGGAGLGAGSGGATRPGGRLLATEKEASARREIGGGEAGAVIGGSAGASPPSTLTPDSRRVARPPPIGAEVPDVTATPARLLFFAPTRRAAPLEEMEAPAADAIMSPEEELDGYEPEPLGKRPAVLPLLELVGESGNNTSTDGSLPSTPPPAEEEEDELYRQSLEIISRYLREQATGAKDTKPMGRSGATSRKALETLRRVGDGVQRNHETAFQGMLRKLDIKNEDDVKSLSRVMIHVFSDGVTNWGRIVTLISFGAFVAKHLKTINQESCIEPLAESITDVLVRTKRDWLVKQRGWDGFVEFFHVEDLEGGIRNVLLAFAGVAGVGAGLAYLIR
Eukaryotic translation initiation factor 4E, sequence (P63073 whole entry): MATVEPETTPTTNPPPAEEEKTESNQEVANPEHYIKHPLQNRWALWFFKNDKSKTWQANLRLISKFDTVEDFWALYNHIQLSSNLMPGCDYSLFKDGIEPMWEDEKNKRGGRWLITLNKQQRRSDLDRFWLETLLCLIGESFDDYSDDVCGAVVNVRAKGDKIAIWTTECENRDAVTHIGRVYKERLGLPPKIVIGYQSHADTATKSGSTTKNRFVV

Q: What does the source list for `O=C(COc1ccccc1Cl)c1ccc[nH]1`?
A: IC50 [1]: > 100 µM (active); IC50 [2]: 50 µM (inactive)

Q: With `CC1CC1C(=O)OCC(=O)Nc1ccc2[nH]c(O)nc2c1` (stereo unspecified) as the molecule, how does the IC50 [3] read?
A: 5.94 µM (active)

Q: With `COC(=O)CSc1ncnc2c1sc1nc(-c3ccco3)c3c(c12)CC(C)(C)OC3` as the molecule, how does the IC50 [3] read?
A: 4.15 µM (active)

Q: With `Cn1nnnc1Sc1ncnc2scc(-c3ccc(C#N)cc3)c12` as the molecule, how does the AC50 [4] read?
A: 7.68 µM (active)

Q: And the AC50 [5]?
A: 8.12 µM (active)

Q: What about the AC50 [6] of the same molecule?
A: 7.28 µM (active)

Q: And the AC50 [7]?
A: 3.6 µM (active)

Q: And the AC50 [8]?
A: 10.9 µM (active)

Q: What about the AC50 [9] of the same molecule?
A: 5.18 µM (active)

Q: And the AC50 [10]?
A: 4.98 µM (active)

Q: For `Oc1c(CN2CCCC2)cc(COCc2ccccc2)c2cccnc12`, which AC50 [11] is on record?
A: 32.7 µM (active)

Q: What about the IC50 [12] of the same molecule?
A: 3.78 µM (active)

Q: What about the AC50 [10] of the same molecule?
A: 6.15 µM (active)

Q: Which IC50 [13] does the source give for `COc1ccccc1NC(=O)c1cnc(Nc2ccccc2OC)c2ccccc12` here?
A: > 80 µM (inactive)

Q: With `O=C(Nc1ccc(Cl)c(S(=O)(=O)N2CCOCC2)c1)c1ccc(OCC2CCCO2)cc1` (stereo unspecified) as the molecule, how does the IC50 [13] read?
A: 16.9 µM (active)

Q: What about the AC50 [10] of the same molecule?
A: 3.26 µM (active)

Q: Which IC50 [13] does the source give for `CCOc1ccc(NC(=O)c2cc3c(C)nc4ccccc4c3o2)cc1` here?
A: > 80 µM (inactive)

Q: What about the IC50 [14] of the same molecule?
A: > 79 µM (inactive)

Q: For `CCN(CC)c1ccc(C(=S)N2CCN(c3ccccc3)CC2)cc1`, which IC50 [15] is on record?
A: > 100 µM (inactive)

Q: What about the IC50 [12] of the same molecule?
A: > 100 µM (active)
